In brackets after ≈: the same amount, converted by molar mass. Where two headings read alike, the source gives them in different places.
Experiments:
[1] = system: L. infantum promastigotes; test: Antileishmanial activity against L. infantum promastigotes (MTT assay); conditions: for IC50: Leishmania infantum, 72 h, read-out: IC50 L. infantum; for Ratio IC50 Miltef./IC50 Compd. (L. infantum): ratio between IC50 of miltefosine and that of each compound, L. infantum promastigotes
Experimental: (§5) Promastigote stage of L. infantum strain MHOM/TN/80/IPT1 (kindly provided by Dr. M. Gramiccia, ISS, Roma) and L. tropica (MHOM/SY/2012/ISS3130) were cultured in RPMI 1640 medium (EuroClone) supplemented with 10% heat-inactivated fetal calf serum (EuroClone, Milan Italy), 20 mM Hepes and 2 mM L-glutamine at 24 °C. […] Compounds were dissolved in DMSO and then diluted with medium to achieve the required concentrations. Drugs were placed in 96 wells round-bottom microplates and seven serial dilutions made. Miltefosine was used as reference anti-Leishmania drug. Parasites were diluted in complete medium to 5 × 10^6 parasites/mL and 100 μL of the suspension was seeded into the plates, incubated at 24 °C for 72 h and then 20 µL of MTT solution (5 mg/mL) was added into each well for 3 h. The plates were then centrifuged, the supernatants were discarded and the resulting pellets were dissolved in 100 µL of lysing buffer consisting of 20% (w/v) of a solution of SDS (Sigma), 40% DMF (Merck, Milan Italy) in H2O. The absorbance was measured spectrophotometrically at a test wavelength of 550 nm and a reference wavelength of 650 nm.

[2] = system: Leishmania tropica promastigotes; test: Antileishmanial activity against L. tropica promastigotes (MTT assay); conditions: for IC50: 72 h, IC50 ± SD; for Ratio IC50 Miltef./IC50 Compd. (L. tropica): ratio between IC50 of miltefosine and that of each compound, L. tropica promastigotes
Experimental: as §5

[3] = Cytotoxicity against Vero-76 cells (crystal violet staining); assay type: cell-based, Cercopithecus Aethiops; conditions: Cercopithecus aethiops (African green monkey)
Experimental: (§1) The cytotoxicity of lucanthone was also tested for comparison. […] The relevant selectivity index (SI)—a parameter that quantifies the preferential antileishmanial activity of a compound in relation to mammalian cell toxicity (CC50/IC50)—is tabulated in Table 2. […] The replacement of the 4-methyl substituent with an amino group in compound 14, while preserving good antileishmanial activity, led to a further substantial decrease of cytotoxicity, with a resultantly safer profile (SI = 16.2 and 16.9 for the two Leishmania species).
(§2) Vero-76 cells (ATCC CRL 1587 Cercopithecus Aethiops) were seeded at an initial density of 4 × 10^5 cells/mL in 24-well plates, in culture medium (Dulbecco’s modified eagle’s medium (D-MEM) with L-glutamine, supplemented with fetal bovine serum (FBS), 0.025 g/L kanamycin). Cell cultures were then incubated at 37 °C in a humidified, 5% CO2 atmosphere in the absence or presence of serial dilutions of test compounds. Cell viability was determined after 48–96 h at 37 °C by the Crystal violet staining method. The results are expressed as CC50, which is the concentration of compound necessary to inhibit cell growth by 50%. Each CC50 value is the mean and standard deviation of at least three separate experiments performed in duplicate.

[4] = system: Vero-76 cells; test: as above; assay type: cell-based, Cercopithecus Aethiops; conditions: for S.I. L. infantum: CC50 Vero-76 / IC50 L. infantum promastigotes; for S.I. L. tropica: CC50 Vero-76 / IC50 L. tropica promastigotes; for selectivity index (SI), range over both Leishmania species: Vero-76 cells vs L. tropica and L. infantum promastigotes
Experimental: as §1, §2

[5] = system: Mycobacterium tuberculosis H37Ra; parameters: method as in PMID 3653383; conditions: cited from earlier work
[6] = system: Mycobacterium tuberculosis; parameters: method as in PMID 3653383; conditions: cited from earlier work
[7] = Cytotoxicity against PMA-differentiated THP-1 cells (MTT); assay type: cell-based, human; conditions: human
Experimental: (§3) The cytotoxic concentration (CC50) against THP-1 differentiated into macrophages (Table 3), used for testing the activity against the amastigote stage, is also reported.
(§4) THP-1 cells were plated at 5 × 10^5 cells/mL in 96 wells flat bottom microplates and treated with 0.1 µM PMA for 48 h to achieve differentiation into macrophages. Cells were then treated with serial dilutions of test compounds and cell proliferation evaluated using the MTT assay described for promastigotes.

[8] = system: PMA-differentiated THP-1; test: as above; assay type: cell-based, human; conditions: CC50 THP-1 / IC50 L. infantum amastigotes
Experimental: as §3, §4

[9] = system: Staphylococcus aureus; parameters: method as in PMID 3653383; conditions: cited from earlier work
[10] = system: Bacillus subtilis; parameters: method as in PMID 3653383; conditions: cited from earlier work
[11] = system: intramacrophagic amastigotes of L. infantum; test: Intracellular amastigote susceptibility assay in PMA-differentiated THP-1 macrophages; assay type: cell-based; conditions: Leishmania infantum; intramacrophagic amastigotes in THP-1 macrophages, 72 h; mean ± SD; read-out: L. infantum Amastigotes IC50
Experimental: Finally, for a better idea of their real value as antileishmanial agents, compounds 14 and 17, displaying the most promising activity against promastigote stage and the highest SI values, together with lucanthone and the corresponding quinolizidine analog 1, were tested against the intramacrophagic amastigote stage of L. infantum.
THP-1 cells (human acute monocytic leukemia) were maintained in RPMI supplemented with 10% FBS (EuroClone), 50 µM 2-mercaptoethanol, 20 mM Hepes and 2 mM glutamine, at 37 °C in 5% CO2. For Leishmania infections, THP-1 cells were plated at 5 × 10^5 cells/mL in 16-chamber Lab-Tek culture slides (Nunc, Milan, Italy) and treated with 0.1 µM phorbol myristate acetate (PMA, Sigma) for 48 h to achieve differentiation into macrophages. Cells were washed and infected with metacyclic L. infantum promastigotes at a macrophage/promastigote ratio of 1/10 for 24 h. Cell monolayers were then washed and incubated in the presence of test compounds for 72 h. Slides were fixed with methanol and stained with Giemsa. The percentages of infected macrophages among treated and non-treated cells were determined by light microscopy.

[12] = cited from earlier work
[13] = system: choline uptake into rat brain synaptosomes; parameters: method as in PMID 6124978; conditions: 1 µM concentration; cited from earlier work
[14] = Leishmania tropica, read-out: IC50 L. tropica, promastigotes, MTT, 72 h
[15] = i.p., doses up to 200–350 mg/kg, once a day for five consecutive days, mice inoculated with leukemia P388 cells

SMILES | IC50 [1] [µM] | Ratio IC50 Miltef./IC50 Compd. (L. infantum) [1] | IC50 [2, 14] [µM] | Ratio IC50 Miltef./IC50 Compd. (L. tropica) [2] | further results
C[N+]12CCCC[C@@H]1[C@H](C=C1c3ccccc3-c3ccccc31)CCC2 (stereo partly drawn) [Compound 19] | 16.4 ± 0.59 | 1.90 | 10.5 ± 2.69 | 4.1 | CC50 [3]: 82.7 ± 4.7 µM; S.I. L. infantum [4]: 5.0; S.I. L. tropica [4]: 7.9; MIC Mycobacterium tuberculosis H37Ra [5]: 83.9 µM
COc1ccc2sc3c([N+](=O)[O-])ccc(NCCCC4CCCN5CCCCC45)c3c(=O)c2c1 (stereo not drawn) [Compound 12] | 7.89 ± 2.41 | 3.95 | 7.39 ± 2.31 | 5.85 | 
Cc1ccc(NCCCC2CCCN3CCCCC23)c2c(=O)c3ccccc3sc12 (stereo not drawn) [Compound 3] | 17.2 ± 1.31 | 1.8 | 8.89 ± 3.02 | 4.87 | 
COc1ccc2sc3c([N+](=O)[O-])ccc(NCC4CCCN5CCCCC45)c3c(=O)c2c1 (stereo not drawn) [Compound 11] | 13 ± 0.97 | 2.4 | 6.35 ± 1.46 | 6.8 | 
CCCCCCCCCCCCCCCCOP(=O)([O-])OCC[N+](C)(C)C [Miltefosine, reference compound] |  | 1.0 | 43.3 ± 11.4 | 1.0 | 
Cc1ccc(NC[C@@H]2CCCN3CCCC[C@H]23)c2c(=O)c3ccccc3sc12 [Compound 1] | 3.87 ± 1.53 | 8.1 | 3.36 ± 1.53 | 12.9 | MIC Mycobacterium tuberculosis [6]: 1.25 µg/mL; MIC Mycobacterium tuberculosis ([6]; converted from µg/mL): 3.32 µM; CC50 [7]: 28 ± 8 µM; SI (THP-1) [8]: 8.0; CC50 [3]: 23.5 ± 1.8 µM; S.I. L. tropica [4]: 7.0; MIC Staphylococcus aureus [9]: 2.5 µg/mL; MIC Staphylococcus aureus ([9]; converted from µg/mL): 6.63 µM; MIC Bacillus subtilis [10]: 2.5 µg/mL; MIC Bacillus subtilis ([10]; converted from µg/mL): 6.63 µM; IC50 [11]: 3.49 ± 0.18 µM; mortality [12, 15]: no mortality
O=c1c2ccccc2sc2c([N+](=O)[O-])ccc(NCCCC3CCCN4CCCCC34)c12 (stereo not drawn) [Compound 10] | 22.3 ± 3.3 | 1.4 | 11.1 ± 3.3 | 3.9 | 
CN(C)CCC=C1c2ccccc2CCc2ccccc21 [Amitriptyline] |  |  |  |  | inhibition of choline uptake into rat brain synaptosomes [13]: completely ineffective
Nc1ccc(NCCC2CCCN3CCCCC23)c2c(=O)c3ccccc3sc12 (stereo not drawn) [Compound 14, 4-amino-1-(quinolizidinylethyl)aminothioxanthen-9-one] | 3.63 ± 0.78 | 8.6 | 3.8 ± 1.82 | 11.4 | CC50 [7]: 21.7 ± 8.83 µM; SI (THP-1) [8]: 10.2; CC50 [3]: 61.4 ± 2.6 µM; S.I. L. infantum [4]: 16.9; S.I. L. tropica [4]: 16.2; selectivity index (SI), range over both Leishmania species [4]: 16–24; IC50 [11]: 2.13 ± 1.35 µM; mortality ([12]; mouse, in vivo, 260 mg/kg): no mortality
Cc1ccc(NC[C@@H]2CCC[N+]3(C)CCCC[C@H]23)c2c(=O)c3ccccc3sc12.[I-] (stereo partly drawn) [Compound 4, (1S,9aR)-5-methyl-1-{[(4-methyl-9-oxo-9H-thioxanthen-1-yl)amino]methyl}-decahydroquinolizin-5-ium iodide] | 13 ± 2.8 | 2.4 | 17.8 ± 5.61 | 2.4 | melting point: 147 to 150 °C
Cc1ccc(NCCC2CCCN3CCCCC23)c2c(=O)c3ccccc3sc12 (stereo not drawn) [Compound 2] | 10.6 ± 3.78 | 2.95 | 6.27 ± 2.75 | 6.9 | CC50 [3]: 22.9 ± 2.3 µM; S.I. L. infantum [4]: 2.2; S.I. L. tropica [4]: 3.7
O=c1c2ccccc2sc2c([N+](=O)[O-])ccc(NCC3CCCN4CCCCC34)c12 (stereo not drawn) [Compound 8] | 38.7 ± 7.67 | 0.8 | 19.2 ± 9.33 | 2.25 | 
Nc1ccc(NCCCC2CCCN3CCCCC23)c2c(=O)c3ccccc3sc12 (stereo not drawn) [Compound 15] | 4.22 ± 1.95 | 7.4 | 3.72 ± 1.66 | 11.6 | 
NNC(=O)c1ccncc1 [isoniazide, reference compound] |  |  |  |  | MIC Mycobacterium tuberculosis H37Ra [5]: 0.14 to 0.28 µM
C(=C1c2ccccc2-c2ccccc21)[C@@H]1CCCN2CCCC[C@H]12 [Compound 17, 9-(quinolizidinylmethylidene)fluorene] | 4.35 ± 0.37 | 7.2 | 3.5 | 12.4 | CC50 [7]: 53.9 ± 3.98 µM; SI (THP-1) [8]: 20.0; IC50 ([2]; read-out: IC50 L. tropica, promastigotes, MTT): 3.49 ± 1.02 µM; CC50 [3]: 83.4 ± 3 µM; S.I. L. infantum [4]: 19.2; S.I. L. tropica [4]: 23.9; selectivity index (SI), range over both Leishmania species [4]: 16–24; IC50 [11]: 2.7 ± 0.68 µM; MIC Mycobacterium tuberculosis H37Ra [5]: 0.49 µM (≈ 0.155 µg/mL)
Nc1ccc(NCC2CCCN3CCCCC23)c2c(=O)c3ccccc3sc12 (stereo not drawn) [Compound 13] | 5.23 ± 1.83 | 6.0 | 2.87 ± 0.43 | 15.1 | 
O=c1c2ccccc2sc2c([N+](=O)[O-])ccc(NCCC3CCCN4CCCCC34)c12 (stereo not drawn) [Compound 9] | 9.39 ± 4.34 | 3.3 | 4.64 ± 1.12 | 9.3 | mortality [12, 15]: no mortality
COc1ccc2sc3c(C)ccc(NCCCC4CCCN5CCCCC45)c3c(=O)c2c1 (stereo not drawn) [Compound 7] | 19.7 ± 5.79 | 1.6 | 12 ± 5.24 | 3.6 | 
C[N+]12CCCC[C@@H]1[C@H](C=C1c3ccccc3CCc3ccccc31)CCC2.[I-] (stereo partly drawn) [Compound 20, (1S,9aR)-1-[(10,11-dihydro-5H-dibenzo[a,d][7]annulen-5-ylidene)methyl]-5-methyl-decahydroquinolizin-5-ium iodide] | 8.71 ± 0.68 | 3.58 | 7.21 ± 3.52 | 6.0 | melting point: 283 to 286 °C; CC50 [3]: 89.9 ± 3.7 µM; S.I. L. infantum [4]: 10.3; S.I. L. tropica [4]: 12.5
COc1ccc2sc3c(C)ccc(NCC4CCCN5CCCCC45)c3c(=O)c2c1 (stereo not drawn) [Compound 5] | 8.99 ± 3.86 | 3.5 | 8.16 ± 5.23 | 5.3 | mortality [12, 15]: no mortality
Cc1ccc(NCC2CCCN3CCCCC23)c2c(=O)c3ccccc3oc12 (stereo not drawn) [Compound 16] | 8.23 ± 1.51 | 3.8 | 6.56 ± 3.08 | 6.6 | 
